Laboratory results: patent US9517996B2, “Purification of polycarboxylic acids” (Verdezyne, Inc., priority 2014, dated 2016)

Test: physchem
Conditions: thermodynamic from solid
Protocol: Each polycarboxylic acid was added to the water or acetic acid solution while mixing and kept at the appropriate temperature until the solution became supersaturated as visually determined at least 20 minutes after addition of the polycarboxylic acid.

SMILES: O=C(O)CCCCCCCCCCC(=O)O [DDDA, dodecanedioic acid]
- solubility (20 °C, organic solvent or mixture): < 200 µg/mL
- solubility (23 °C, water): < 30 µg/mL
- solubility (70 °C, organic solvent or mixture): > 100000 µg/mL
- solubility (70 °C, water): < 120 µg/mL
- solubility (water): < 1000 µg/mL
